Experimental data taken from publication PMC10001202, “Preparation, Identification and Preliminary Application of the Fenvalerate Monoclonal Antibody in Six Kinds of Dark Tea” (Foods, 2023).
≈ marks a conversion by molar mass, not a printed value.

How the values were obtained:
Type in all cases: binding, BALB/c mice
[1] = test system: McAb 1B6; assay: ic-ELISA cross-reactivity, McAb 1B6
Method: (§1) The cross-reactivities with nine permethrin pesticides (deltamethrin, permethrin, cypermethrin, bifenthrin, fenpermethrin, fluobenzene, beta-cyhalothrin, dextrofenthrin, cypermethrin) were obtained, and McAb was determined to clarify the specificity of the monoclonal antibody prepared. The IC50 of the nine permethrin pesticides was measured by the ic-ELISA with the obtained McAb and the coating antigen. The cross-reactivity was calculated with the following Formula (1):Cross-reactivity (CR, %) = IC50 of Fen/IC50 of Fen analogs × 100%(1)

[2] = test system: McAb 2A11; assay: ic-ELISA cross-reactivity, McAb 2A11
Method: as §1

[3] = test system: McAb 5G2; assay: ic-ELISA cross-reactivity, McAb 5G2
Method: as §1

[4] = IC50 of Fen/IC50 of analog × 100%

Structure (SMILES)	IC50 [1]	IC50 [2]	IC50 [3]	CR% [1, 4] [%]	CR% [2, 4] [%]	CR% [3, 4] [%]
Cc1c(COC(=O)[C@@H]2[C@H](/C=C(\Cl)C(F)(F)F)C2(C)C)cccc1-c1ccccc1 (racemic) [Bifenthrin]	>10,000 ng/mL	>10,000 ng/mL	>10,000 ng/mL	–	–	–
CC1(C)[C@H](C(=O)O[C@H](C#N)c2cccc(Oc3ccccc3)c2)[C@@H]1/C=C(\Cl)C(F)(F)F (racemic) [Lambda-cyhalothrin]	>10,000 ng/mL	>10,000 ng/mL	>10,000 ng/mL	–	–	–
CC1(C)C(C=C(Cl)Cl)C1C(=O)OC(C#N)c1ccc(F)c(Oc2ccccc2)c1 (stereo not drawn) [Cyfluthrin]	>10,000 ng/mL	>10,000 ng/mL	>10,000 ng/mL	–	–	–
CC1(C)C(C=C(Cl)Cl)C1C(=O)OC(C#N)c1cccc(Oc2ccccc2)c1 (stereo not drawn) [Cypermethrin]	>10,000 ng/mL	>10,000 ng/mL	>10,000 ng/mL	–	–	–
CC(C)=CC1C(C(=O)OCc2cccc(Oc3ccccc3)c2)C1(C)C [D-Phenothrin]	>10,000 ng/mL	>10,000 ng/mL	>10,000 ng/mL	–	–	–
CC1(C)[C@H](C(=O)O[C@H](C#N)c2cccc(Oc3ccccc3)c2)[C@@H]1C=C(Br)Br [Deltamethrin]	>10,000 ng/mL	>10,000 ng/mL	>10,000 ng/mL	–	–	–
CC1(C)C(C(=O)OC(C#N)c2cccc(Oc3ccccc3)c2)C1(C)C (stereo not drawn) [Fenpropathrin]	>10,000 ng/mL	>10,000 ng/mL	>10,000 ng/mL	–	–	–
CC(C)C(C(=O)OC(C#N)c1cccc(Oc2ccccc2)c1)c1ccc(Cl)cc1 (stereo not drawn) [Fenvalerate]	36.6 ng/mL (≈ 0.0872 µM)	24.29 ng/mL (≈ 0.0578 µM)	21.65 ng/mL (≈ 0.0516 µM)	100	100	100
CC1(C)C(C=C(Cl)c2ccc(Cl)cc2)C1C(=O)OC(C#N)c1ccc(F)c(Oc2ccccc2)c1 (stereo not drawn) [Flumethrin]	>10,000 ng/mL	>10,000 ng/mL	>10,000 ng/mL	–	–	–
CC1(C)C(C=C(Cl)Cl)C1C(=O)OCc1cccc(Oc2ccccc2)c1 (stereo not drawn) [Permethrin]	>10,000 ng/mL	>10,000 ng/mL	>10,000 ng/mL	–	–	–
